Data: patent publication US6833150B1, “Spray -dried bacteriocin powder with anti-microbial activity” (Teagasc, The Agriculture and Food Development Authority, priority 2001, dated 2004)

Legend:
[1] = system: Gram-positive organisms, including Listeria, Clostridium spp., Enterococcus, Staphylococcus and Streptococcus; conditions: cited from earlier work
[2] = system: L. lactis subsp lactis HP; test: Bacteriocin activity by agar well diffusion assay; type: cell-based, Lactococcus lactis; conditions: for Bacteriocin activity: 10% reconstituted demineralized whey powder; for Lacticin 3147 activity: overnight incubation at 30° C.
Protocol: Bacteriocin activity was determined by the agar well diffusion assay as described by Parente and Hill (15). Molten agar was seeded with an indicator strain and dispensed into petri dishes. Wells of approximately 4.6 mm in diameter were bored in the agar and a 50 μl volume of a two fold serial dilution of a bacteriocin preparation was dispensed into each well. Bacteriocin solution was prepared by centrifuging the culture and heat treating the supernatant at 70° C. for 10 minutes prior to carrying out the dilution series. The plates were then incubated at either 30° C. or 37° C., depending on the indicator strain used. Bacteriocin activity was calculated as the inverse of the last dilution that gave a definite zone of clearance after overnight incubation. Activity units (AU) were expressed per milliliter (1/dilution, ×20).
(§1) Activity of both lacticin 3147 preparations was determined by the agar well diffusion assay as described by Parente and Hill (15). Molten agar was seeded with the indicator strain L. lactis subsp. lactis HP and dispensed into petri dishes. Wells of approximately 6.0 mm in diameter were bored in the agar and a 50 μl volume of a two fold serial dilution of a bacteriocin preparation was dispensed into each well. The plates were then incubated at 30° C. Bacteriocin activity was calculated as the inverse of the last dilution that gave a definite zone of clearance after overnight incubation. Activity units (AU) were expressed per milliliter (1/dilution, ×20). Activity may also be expressed as zone diameter (mm), where the diameter of the first zone (neat, undiluted sample) of the dilution series is recorded.

L. lactis HP = test: Effect of high pressure on lacticin 3147 activity (well diffusion assay); type: cell-based, Lactococcus lactis; conditions: pressures greater than 400 MPa
Protocol: as §1
Pressurised and non-pressurised solutions of lacticin 3147 were heat treated at 80° C. for 10 minutes prior to carrying out activity determination by the well diffusion assay using L. lactis HP as an indicator strain.

Staph. aureus ATCC6538 = test: High pressure and lacticin 3147 inactivation in milk (10% RSM); type: cell-based, Staphylococcus aureus
Protocol: For the inactivation of Staph. aureus ATCC6538 a liquid preparation of lacticin 3147 was prepared using hydrophobic adsorption chromatography. For studies on inactivation of L. innocua DPC1770 a food grade powdered preparation of lacticin 3147 was manufactured as described above with the following modification; a 1% demineralised whey powder solution was fermented with L. lactis subsp. lactis DPC3147 under pH controlled conditions of pH 6.0 for 18 hours.
Staph. aureus ATCC6538 cells were resuspended in 10% RSM and aliquoted into sterile 700 μl PCR eppendorfs prior to placing in sterile stomacher bags (Seward Ltd., London, UK). Ten millilitre volumes of L. innocua DPC1770 cells were resuspended in 20% reconstituted demineralised whey powder aliquoted into sterile stomacher bags. Samples were individually vacuum sealed prior to placing in the pressure vessel (Stansted Fluid Power Ltd., Stansted, England). The vessel consisted of a stainless-steel cylinder (37 mm diameter×300 mm height) filled with a 15% (v/v) caster oil in ethanol solution which acts as the hydrostatic pressurisation medium. Samples were treated for 30 min at 25° C. in the pressure range 150 to 600 MPa, in addition to a control sample being held at atmospheric pressure (0.1 MPa). […] The chamber temperature was determined by means of a thermoregulating system which circulated to maintain the chamber temperature.

lacticin 3147
inhibitory spectrum [1]: inhibitory to a wide range of Gram-positive organisms
Bacteriocin activity ([2]; constant pH 6.0, 30° C.): 5120 AU/ml
Bacteriocin activity ([2]; constant pH 7.0, 30° C.): 5120 AU/ml
Bacteriocin activity ([2]; no pH control, 30° C.): 640 AU/ml
Bacteriocin activity ([2]; pH held constant at pH 6.5, 30° C.): 10,240 AU/ml
Effect of pasteurisation on bacteriocin activity ([2]; 72° C. for 15 sec): no effect
Bacteriocin activity during manufacture ([2]; after evaporation at 60° C. from 10% to 40% total solids): 40,960 AU/ml
Activity of the concentrate following overnight crystallisation ([2]; cooled from 32° C. at 1° C. per hour overnight): remained stable
Bacteriocin activity during manufacture ([2]; following the pH controlled 170 L fermentation (pH 6.5, 10% total solids)): 10,240 AU/ml
Lacticin 3147 activity ([2]; growth medium 10% reconstituted demineralised whey powder): 1,280 AU/ml
Lacticin 3147 activity ([2]; growth medium 10% reconstituted demineralised whey powder, listed as Lacticin 3147): 1280 AU/ml
Lacticin 3147 activity ([2]; growth medium 10% reconstituted skimmed milk powder): 1,280 AU/ml
Lacticin 3147 activity ([2]; growth medium 10% reconstituted skimmed milk powder, listed as Lacticin 3147): 1280 AU/ml
Lacticin 3147 activity ([2]; growth medium Cheddar cheese whey): 2,560 AU/ml
Lacticin 3147 activity ([2]; growth medium Cheddar cheese whey, listed as Lacticin 3147): 2560 AU/ml
Lacticin 3147 activity ([2]; growth medium LM17): 2,560 AU/ml
Lacticin 3147 activity ([2]; growth medium LM17, listed as Lacticin 3147): 2560 AU/ml
Lacticin 3147 activity ([2]; growth medium TY broth): 640 AU/ml
Lacticin 3147 activity ([2]; growth medium whey protein concentrate (WPC35)): 320 AU/ml
Lacticin 3147 activity ([2]; growth medium whole milk): 2,560 AU/ml
Lacticin 3147 activity ([2]; growth medium whole milk, listed as Lacticin 3147): 2560 AU/ml
Lacticin 3147 activity expressed as AU/g of dry matter throughout manufacture ([2]; remained constant through pasteurisation, evaporation, crystallisation, spray drying): 102,400 AU/g
change in bacteriocin activity after pressure treatment (L. lactis HP): doubling of activity
logs of kill (Staph. aureus ATCC6538; combination of 250 MPa and lacticin 3147, 30 min at 25° C.): more than 6 logs
log reduction (Staph. aureus ATCC6538; concentrated lacticin 3147 from culture supernatant alone): 1 log
